Earlier results as cited in patent publication US9828409B2, “Bridged-cyclo-ProTides as prodrugs of therapeutic nucleosides and nucleotides” (priority 2014, dated 2017).

Settings: patients in clinical trials

## CCOc1nc(N)nc2c1ncn2[C@@H]1O[C@@H]2COP(=O)(OC(C)C)O[C@H]2[C@@]1(C)F (stereo partly shown) [PSI-352938]
  level of liver enzymes in patients: elevated level of liver enzymes
